Assay results as given in patent US20230113037A1 (Bayer Aktiengesellschaft, priority 2019, published 2023).
Read-outs that look alike come from different tables or passages of the source.

Key:
AHR [1] = molecular target: T1, AHR (Mus musculus, UniProt P30561); assay: In vitro assay 3: antagonism in mouse cell line (AHR transactivation, firefly luciferase reporter, kynurenic acid prestimulated); type: cell-based
T1 sequence (P30561 1-848 P471L/N533S/M589L): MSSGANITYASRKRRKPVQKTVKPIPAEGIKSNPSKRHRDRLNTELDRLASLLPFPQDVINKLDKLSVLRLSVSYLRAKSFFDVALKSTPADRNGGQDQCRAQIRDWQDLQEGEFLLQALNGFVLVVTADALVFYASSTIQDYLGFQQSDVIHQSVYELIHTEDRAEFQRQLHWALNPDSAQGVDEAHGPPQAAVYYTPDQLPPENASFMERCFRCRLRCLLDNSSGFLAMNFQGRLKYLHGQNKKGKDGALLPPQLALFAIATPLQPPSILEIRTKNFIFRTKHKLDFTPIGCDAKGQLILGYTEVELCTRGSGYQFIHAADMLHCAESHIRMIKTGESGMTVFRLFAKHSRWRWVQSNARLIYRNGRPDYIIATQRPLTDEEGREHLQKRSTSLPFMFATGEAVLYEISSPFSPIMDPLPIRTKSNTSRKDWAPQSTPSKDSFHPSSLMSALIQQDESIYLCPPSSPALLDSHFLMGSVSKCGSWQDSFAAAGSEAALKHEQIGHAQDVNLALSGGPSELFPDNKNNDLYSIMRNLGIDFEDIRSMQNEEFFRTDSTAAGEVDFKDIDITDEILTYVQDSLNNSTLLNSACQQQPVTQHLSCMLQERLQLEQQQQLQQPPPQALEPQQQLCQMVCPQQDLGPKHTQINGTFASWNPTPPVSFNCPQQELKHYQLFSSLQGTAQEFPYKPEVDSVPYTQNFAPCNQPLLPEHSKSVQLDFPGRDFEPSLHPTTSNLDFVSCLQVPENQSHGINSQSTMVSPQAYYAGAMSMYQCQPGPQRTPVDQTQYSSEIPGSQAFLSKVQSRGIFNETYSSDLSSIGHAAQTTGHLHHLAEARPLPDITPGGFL
Procedure, shortened: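 Kynurenic acid-prestimulated mouse reporter cells; stable AHR-inducible firefly luc construct with DRE sites in promoter. No-agonist wells = positive inhibition ctrl. Luminescence normalized to pos/neg ctrls; n>1 reported as mean or median.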

AHR [2] = molecular target: T2, AHR (Homo sapiens, UniProt P35869); assay: In vitro assay 1: antagonism in human cell line (AHR transactivation, firefly luciferase reporter, kynurenic acid prestimulated); type: cell-based; settings: AHR Antagonism Human IC50 [M], firefly luciferase reporter
T2 construct: U87 MG glioblastoma cells (ATCC #HTB-14) endogenously expressing AHR; endogenous in cells; host or cells: U87 MG glioblastoma cells (ATCC #HTB-14)
T2 sequence (P35869 11-848): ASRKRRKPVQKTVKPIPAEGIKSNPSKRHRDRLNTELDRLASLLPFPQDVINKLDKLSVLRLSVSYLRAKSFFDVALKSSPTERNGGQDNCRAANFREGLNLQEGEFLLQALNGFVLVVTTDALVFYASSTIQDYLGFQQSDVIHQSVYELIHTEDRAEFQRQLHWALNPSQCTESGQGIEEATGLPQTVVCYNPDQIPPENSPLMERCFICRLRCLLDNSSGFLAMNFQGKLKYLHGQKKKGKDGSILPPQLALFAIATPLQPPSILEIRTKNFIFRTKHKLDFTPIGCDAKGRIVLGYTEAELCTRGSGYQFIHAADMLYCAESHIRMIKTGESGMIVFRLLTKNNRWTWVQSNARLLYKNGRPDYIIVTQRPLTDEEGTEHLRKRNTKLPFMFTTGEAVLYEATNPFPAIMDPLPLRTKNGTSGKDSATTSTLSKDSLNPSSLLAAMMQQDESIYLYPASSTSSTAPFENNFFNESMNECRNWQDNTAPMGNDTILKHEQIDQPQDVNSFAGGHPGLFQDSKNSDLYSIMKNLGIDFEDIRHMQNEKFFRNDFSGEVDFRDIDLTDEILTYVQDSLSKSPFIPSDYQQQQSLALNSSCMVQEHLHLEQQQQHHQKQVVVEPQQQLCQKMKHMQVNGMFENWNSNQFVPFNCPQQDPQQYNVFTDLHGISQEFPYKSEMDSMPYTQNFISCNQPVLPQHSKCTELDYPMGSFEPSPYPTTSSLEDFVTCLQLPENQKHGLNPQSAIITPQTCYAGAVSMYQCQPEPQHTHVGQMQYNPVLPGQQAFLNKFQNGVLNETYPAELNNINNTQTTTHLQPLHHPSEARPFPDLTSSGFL
Procedure, shortened: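 Antagonism is measured against kynurenic acid prestimulation in U87 MG glioblastoma cells carrying stable DRE-luciferase and Renilla reporters. Positive inhibition control: 150 μM kynurenic acid with 5 μM staurosporine. Values are normalized to controls; repeats are averaged or given as medians.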

[3] = Hepa 1c1c7 cells, 200 μM kynurenic acid, 20 hours, firefly luciferase reporter, read-out: AHR Antagonism Mouse IC50

IC50 (AHR [1]; [3]) [nM] | IC50 (AHR [2]) [M] | SMILES | IC50 (AHR [1]; read-out: AHR Antagonism Mouse IC50, Hepa 1c1c7 cells, 200 μM kynurenic acid, 20 hours, firefly luciferase reporter) [nM]
66.2 | 8.28e-09 | CC(C)n1cc(-c2nc3c4cccc(C(F)(F)F)c4nc(N[C@@H]4CS(=O)(=O)CCNC4=O)n3n2)cn1 [Example 852, (6S)-6-({2-[1-(propan-2-yl)-1H-pyrazol-4-yl]-7-(trifluoromethyl)[1,2,4]triazolo[1,5-c]quinazolin-5-yl}amino)-1λ^6,4-thiazepane-1,1,5-trione] | 
1560 | 1.07e-07 | Cn1cc(-c2nc3c4cccc(S(C)(=O)=O)c4nc(N[C@@H]4CCCCNC4=O)n3n2)cn1 [Example 858, (3R)-3-{[7-(methanesulfonyl)-2-(1-methyl-1H-pyrazol-4-yl)[1,2,4]triazolo[1,5-c]quinazolin-5-yl]amino}azepan-2-one] | 
39.4 | 4.11e-09 | COc1ccc(-c2nc3c4cccc(C(C)(C)O)c4nc(N[C@@H]4CCCCNC4=O)n3n2)cc1 [Example 859, (3R)-3-{[7-(2-hydroxypropan-2-yl)-2-(4-methoxyphenyl)[1,2,4]triazolo[1,5-c]quinazolin-5-yl]amino}azepan-2-one] | 
16 | 9.26e-10 | COc1ccc(-c2nc3c4cccc(CO)c4nc(N[C@@H]4CCCCNC4=O)n3n2)cc1 [Example 860, (3R)-3-{[7-(hydroxymethyl)-2-(4-methoxyphenyl)[1,2,4]triazolo[1,5-c]quinazolin-5-yl]amino}azepan-2-one] | 
4.12 | 1.86e-09 | COc1ccc(-c2nc3c4c(CO)cccc4nc(N[C@@H]4CCCCNC4=O)n3n2)cc1 [Example 862, (3R)-3-{[10-(hydroxymethyl)-2-(4-methoxyphenyl)[1,2,4]triazolo[1,5-c]quinazolin-5-yl]amino}azepan-2-one] | 
12.9 | 2.98e-09 | COc1ccc(-c2nc3c4cccc(CSC)c4nc(N[C@@H]4CCCCNC4=O)n3n2)cc1 [Example 863, (3R)-3-({2-(4-methoxyphenyl)-7-[(methylsulfanyl)methyl][1,2,4]triazolo[1,5-c]quinazolin-5-yl}amino)azepan-2-one] | 
378 | 2.57e-08 | CCOC(=O)[C@@H](C)Nc1nc2c(C(F)(F)F)cccc2c2nc(-c3cnn(C)c3)nn12 [Example 864, ethyl N-[2-(1-methyl-1H-pyrazol-4-yl)-7-(trifluoromethyl)[1,2,4]triazolo[1,5-c]quinazolin-5-yl]-D-alaninate] | 
11.8 | 4.02e-09 | CCOC(=O)[C@@H](C)Nc1nc2c(Br)cccc2c2nc(-c3ccc(OC)cc3)nn12 [Example 865, ethyl N-[7-bromo-2-(4-methoxyphenyl)[1,2,4]triazolo[1,5-c]quinazolin-5-yl]-D-alaninate] | 
144 | 5.75e-08 | CCOC(=O)[C@@H](C)Nc1nc2c(Br)cccc2c2nc(-c3cnn(C)c3)nn12 [Example 866, ethyl N-[7-bromo-2-(1-methyl-1H-pyrazol-4-yl)[1,2,4]triazolo[1,5-c]quinazolin-5-yl]-D-alaninate] | 
3 | 2.6e-09 | COC(=O)[C@H](Nc1nc2c(Br)cccc2c2nc(-c3ccc(OC)cc3)nn12)C(C)C [Example 867, methyl N-[7-bromo-2-(4-methoxyphenyl)[1,2,4]triazolo[1,5-c]quinazolin-5-yl]-D-valinate] | 
6.29 | 6.28e-09 | COC(=O)[C@H](Nc1nc2c(Br)cccc2c2nc(-c3cnn(C)c3)nn12)C(C)C [Example 868, methyl N-[7-bromo-2-(1-methyl-1H-pyrazol-4-yl)[1,2,4]triazolo[1,5-c]quinazolin-5-yl]-D-valinate] | 
10.7 | 1.09e-08 | COc1ccc(-c2nc3c4cccc(Br)c4nc(N[C@H](C)C(=O)O)n3n2)cc1 [Example 870] | 
15.8 | 6.57e-09 | COc1ccc(-c2nc3c4cccc(Br)c4nc(N[C@@H](C(=O)O)C(C)C)n3n2)cc1 [Example 872, N-[7-bromo-2-(4-methoxyphenyl)[1,2,4]triazolo[1,5-c]quinazolin-5-yl]-D-valine] | 
61.7 | 2.31e-08 | C[C@@H](Nc1nc2c(C(F)(F)F)cccc2c2nc(-c3cnn(C)c3)nn12)C(=O)N1CCOCC1 [Example 874, (2R)-2-{[2-(1-methyl-1H-pyrazol-4-yl)-7-(trifluoromethyl)[1,2,4]triazolo[1,5-c]quinazolin-5-yl]amino}-1-(morpholin-4-yl)propan-1-one] | 
31.5 | 1.69e-08 | C[C@@H](Nc1nc2c(C(F)(F)F)cccc2c2nc(-c3cnn(C)c3)nn12)C(=O)N1CCN(C)CC1 [Example 875, (2R)-1-(4-methylpiperazin-1-yl)-2-{[2-(1-methyl-1H-pyrazol-4-yl)-7-(trifluoromethyl)[1,2,4]triazolo[1,5-c]quinazolin-5-yl]amino}propan-1-one] | 
160 | 8.72e-08 | C[C@@H](Nc1nc2c(C(F)(F)F)cccc2c2nc(-c3cnn(C)c3)nn12)C(=O)N(C)CCN(C)C [Example 877, N-[2-(dimethylamino)ethyl]-N-methyl-N^2-[2-(1-methyl-1H-pyrazol-4-yl)-7-(trifluoromethyl)[1,2,4]triazolo[1,5-c]quinazolin-5-yl]-D-alaninamide] | 
43.3 | 2.78e-08 | COCCN(C)C(=O)[C@@H](C)Nc1nc2c(C(F)(F)F)cccc2c2nc(-c3cnn(C)c3)nn12 [Example 878, N-(2-methoxyethyl)-N-methyl-N^2-[2-(1-methyl-1H-pyrazol-4-yl)-7-(trifluoromethyl)[1,2,4]triazolo[1,5-c]quinazolin-5-yl]-D-alaninamide] | 
12.2 | 6.04e-09 | COc1ccc(-c2nc3c4ccccc4nc(N[C@H](C)C(=O)NCCN4CCN(C)CC4)n3n2)cc1 [Example 881, N^2-[2-(4-methoxyphenyl)[1,2,4]triazolo[1,5-c]quinazolin-5-yl]-N-[2-(4-methylpiperazin-1-yl)ethyl]-D-alaninamide] | 
5.13 | 5.91e-09 | COc1ccc(-c2nc3c4ccccc4nc(N[C@H](C)C(=O)N4CCN(C(=O)OC(C)(C)C)CC4)n3n2)cc1 [Example 882, tert-butyl 4-{N-[2-(4-methoxyphenyl)[1,2,4]triazolo[1,5-c]quinazolin-5-yl]-D-alanyl}piperazine-1-carboxylate] | 
7.79 | 5.84e-09 | COc1ccc(-c2nc3c4cccc(Br)c4nc(N[C@H](C)C(=O)N4CCN(C(=O)OC(C)(C)C)CC4)n3n2)cc1 [Example 883, tert-butyl 4-{N-[7-bromo-2-(4-methoxyphenyl)[1,2,4]triazolo[1,5-c]quinazolin-5-yl]-D-alanyl}piperazine-1-carboxylate] | 

SMILES | IC50 (AHR [1]; [3]) [nM] | IC50 (AHR [2]) [M] | IC50 (AHR [1]; read-out: AHR Antagonism Mouse IC50, Hepa 1c1c7 cells, 200 μM kynurenic acid, 20 hours, firefly luciferase reporter) [nM]
C[C@@H](Nc1nc2c(C(F)(F)F)cccc2c2nc(-c3cnn(C)c3)nn12)C(=O)N1CC2(COC2)C1 [Example 880, (2R)-2-{[2-(1-methyl-1H-pyrazol-4-yl)-7-(trifluoromethyl)[1,2,4]triazolo[1,5-c]quinazolin-5-yl]amino}-1-(2-oxa-6-azaspiro[3.3]heptan-6-yl)propan-1-one] |  | 5.77e-08 | 193
